Source: ChEMBL document CHEMBL3616388, “Discovery of novel nonpeptide allosteric inhibitors interrupting the interaction of CDK2/cyclin A3 by virtual screening and bioassays” (Bioorg Med Chem Lett, 2015)
Each block holds one molecule with its values, some of them ahead of it.

Columns and labels:
[1] = target: T1, Cyclin-dependent kinase 2 (Homo sapiens, UniProt P24941); assay: Binding affinity to N-terminal His-tagged recombinant human CDK2 (1 to 298 amino acid residues) expressed in Escherichia coli BL21 assessed as inhibition of interaction with cyclin A3 by measuring HHASPRK phosphorylation at 100 uM by ADP-Glo Max assay relative to control
[2] = tested on: A549; assay: Cell cycle arrest in human A549 cells assessed as accumulation at G0/G1 phase at 10 uM after 72 hrs by propidium iodide staining-based flow cytometric analysis (reference value: 68.68%); format: functional
[3] = target: T1, Cyclin-dependent kinase 2; assay: Binding affinity to GST-tagged recombinant human CDK2 (1 to 298 amino acid residues) expressed in Escherichia coli BL21 assessed as inhibition of interaction with His-tagged cyclin A3 preincubated overnight with GST-tagged protein followed by His-tagged cyclin A3 addition by GST pull down assay
[4] = target: T1, Cyclin-dependent kinase 2; assay: Binding affinity to N-terminal His-tagged recombinant human CDK2 (1 to 298 amino acid residues) expressed in Escherichia coli BL21 assessed as inhibition of interaction with cyclin A3 by measuring 1.25 mM HHASPRK phosphorylation by ADP-Glo Max assay in presence of 75 uM ATP
[5] = tested on: HepG2; assay: Cytotoxicity against human HepG2 cells assessed as cell viability after 72 hrs by MTS assay; format: functional, cell-based
[6] = tested on: A549; assay: Cell cycle arrest in human A549 cells assessed as accumulation at S phase at 50 uM after 72 hrs by propidium iodide staining-based flow cytometric analysis (reference value: 11.53%); format: functional
[7] = tested on: A549; assay: Cell cycle arrest in human A549 cells assessed as accumulation at S phase at 25 uM after 72 hrs by propidium iodide staining-based flow cytometric analysis (reference value: 11.53%); format: functional
[8] = target: Cyclin-dependent kinase 2 (Homo sapiens, UniProt P24941, Y180A); assay: Binding affinity to human CDK2 Y180A mutant expressed in Escherichia coli BL21 assessed as inhibition of interaction with cyclin A3 by measuring HHASPRK phosphorylation by ADP-Glo Max assay
[9] = target: Cyclin-dependent kinase 2 (Homo sapiens, UniProt P24941, R150A); assay: Binding affinity to human CDK2 R150A mutant expressed in Escherichia coli BL21 assessed as inhibition of interaction with cyclin A3 by measuring HHASPRK phosphorylation by ADP-Glo Max assay
[10] = tested on: A549; assay: Cell cycle arrest in human A549 cells assessed as accumulation at S phase at 200 uM after 72 hrs by propidium iodide staining-based flow cytometric analysis (reference value: 11.53%); format: functional
[11] = tested on: A549; assay: Cell cycle arrest in human A549 cells assessed as accumulation at G2/M phase at 50 uM after 72 hrs by propidium iodide staining-based flow cytometric analysis (reference value: 19.79%); format: functional
[12] = tested on: A549; assay: Cell cycle arrest in human A549 cells assessed as accumulation at G2/M phase at 25 uM after 72 hrs by propidium iodide staining-based flow cytometric analysis (reference value: 19.79%); format: functional
[13] = tested on: A549; assay: Cell cycle arrest in human A549 cells assessed as accumulation at S phase at 10 uM after 72 hrs by propidium iodide staining-based flow cytometric analysis (reference value: 11.53%); format: functional
[14] = target: T1, Cyclin-dependent kinase 2; assay: Binding affinity to N-terminal His-tagged recombinant human CDK2 (1 to 298 amino acid residues) expressed in Escherichia coli BL21 assessed as inhibition of interaction with cyclin A3 by measuring 250 uM HHASPRK phosphorylation by ADP-Glo Max assay in presence of 375 uM ATP
[15] = tested on: A549; assay: Cytotoxicity against human A549 cells assessed as cell viability after 72 hrs by MTS assay; format: functional, cell-based
[16] = target: T1, Cyclin-dependent kinase 2; assay: Binding affinity to N-terminal His-tagged recombinant human CDK2 (1 to 298 amino acid residues) expressed in Escherichia coli BL21 assessed as inhibition of interaction with cyclin A3 by measuring 250 uM HHASPRK phosphorylation by ADP-Glo Max assay in presence of 750 uM ATP
[17] = tested on: A549; assay: Cell cycle arrest in human A549 cells assessed as accumulation at G0/G1 phase at 25 uM after 72 hrs by propidium iodide staining-based flow cytometric analysis (reference value: 68.68%); format: functional
[18] = tested on: MDA-MB-231; assay: Cytotoxicity against human MDA-MB-231 cells assessed as cell viability after 72 hrs by MTS assay; format: functional, cell-based
[19] = tested on: A549; assay: Cell cycle arrest in human A549 cells assessed as accumulation at G2/M phase at 200 uM after 72 hrs by propidium iodide staining-based flow cytometric analysis (reference value: 19.79%); format: functional
[20] = target: T1, Cyclin-dependent kinase 2; assay: Binding affinity to N-terminal His-tagged recombinant human CDK2 (1 to 298 amino acid residues) expressed in Escherichia coli BL21 assessed as inhibition of interaction with cyclin A3 by measuring 250 uM HHASPRK phosphorylation by ADP-Glo Max assay in presence of 75 uM ATP
[21] = target: T1, Cyclin-dependent kinase 2; assay: Binding affinity to N-terminal His-tagged recombinant human CDK2 (1 to 298 amino acid residues) expressed in Escherichia coli BL21 assessed as inhibition of interaction with cyclin A3 by measuring 2.5 mM HHASPRK phosphorylation by ADP-Glo Max assay in presence of 75 uM ATP
[22] = tested on: A549; assay: Cell cycle arrest in human A549 cells assessed as accumulation at G0/G1 phase at 50 uM after 72 hrs by propidium iodide staining-based flow cytometric analysis (reference value: 68.68%); format: functional
[23] = tested on: A549; assay: Cell cycle arrest in human A549 cells assessed as accumulation at G2/M phase at 10 uM after 72 hrs by propidium iodide staining-based flow cytometric analysis (reference value: 19.79%); format: functional
[24] = tested on: A549; assay: Cell cycle arrest in human A549 cells assessed as accumulation at G0/G1 phase at 200 uM after 72 hrs by propidium iodide staining-based flow cytometric analysis (reference value: 68.68%); format: functional

SMILES: CCOC(=O)C(Cc1ccc(OC)c([N+](=O)[O-])c1)NC(=O)CCC(=O)Nc1ccc(S(N)(=O)=O)cc1 (centres undefined)
- inhibition [1]: < 5%

SMILES: Cc1ccccc1C(=O)N(Cc1ccc(C(F)(F)F)cc1)c1ccc(CC(=O)NCc2ccc(F)cc2)cc1
- inhibition [1]: 37.5%

SMILES: CCN(C(=O)CCNC(=O)Cn1cnc2ccccc2c1=O)c1cccc(C(F)(F)F)c1
- inhibition [1]: 8.39%

SMILES: CC(=O)C1=C(O)C(=O)N(CO)C1c1ccccc1 (centres undefined)
- inhibition [1]: < 5%

SMILES: CSc1ccc(/C=N/c2cc([N+](=O)[O-])ccc2O)cc1
- Activity [2]: 66.03%
- Activity [3]: Dose-dependent effect
- IC50 [4]: 58.1 µM
- Activity [5]: Dose-dependent effect
- Activity [6]: 26.21%
- Activity [7]: 21.91%
- IC50 [8]: 151 µM
- IC50 [9]: 885 µM
- Activity [10]: 41.3%
- Activity [11]: 12.99%
- Activity [12]: 12.83%
- Activity [13]: 15.21%
- IC50 [14]: 78.3 µM
- Activity [15]: Dose-dependent effect
- IC50 [16]: 55.1 µM
- Activity [17]: 65.26%
- Activity [18]: Dose-dependent effect
- Activity [19]: 15.2%
- IC50 [20]: 52.1 µM
- IC50 [21]: 69.8 µM
- Activity [22]: 60.8%
- Activity [23]: 18.76%
- Activity [24]: 43.49%
- inhibition [1]: 65.5%

SMILES: C/C(Cc1ccccc1)=N\Nc1nnc2c(n1)[nH]c1ccccc12
- inhibition [1]: 35.2%

SMILES: CCOc1cc(C(=O)Nc2ccc(S(=O)(=O)Nc3nc(C)cc(C)n3)cc2)cc(OCC)c1OCC
- IC50 [20]: 105 µM
- inhibition [1]: 62.3%

SMILES: Cc1[nH]c2ccccc2c1/C=N/c1ccccc1C(=O)O
- inhibition [1]: < 5%

SMILES: Cn1c(=O)[nH]c(=O)c2c1nc(N/N=C1/C(=O)Nc3ccccc31)n2CC(O)COc1ccccc1 (centres undefined)
- inhibition [1]: < 5%

SMILES: O=C(CSc1nc2ccc(NC(=O)CSCC(=O)Nc3ccc4ccccc4c3)cc2s1)NCCOc1ccccc1
- inhibition [1]: < 5%

The remaining lines, values ahead:

- inhibition [1]: < 5%
SMILES: COc1ccccc1OCCOc1ccccc1/C=c1\sc2n(c1=O)C(c1ccccc1)C(C(=O)Nc1ccccc1)=C(C)N=2 (centres undefined)

- inhibition [1]: 5.54%
SMILES: CN1C(=O)c2cccc3c(S(=O)(=O)NCCC(=O)O)ccc1c23

- inhibition [1]: 38%
SMILES: Cc1cc(C)nc(NS(=O)(=O)c2ccc(NC(=O)CCCCC(=O)Nc3ccc(S(=O)(=O)Nc4nc(C)cc(C)n4)cc3)cc2)n1

- inhibition [1]: < 5%
SMILES: Cc1ccc(S(=O)(=O)Nc2ccc(C(=O)N3N=C(c4c(-c5ccccc5)c5cc(Br)ccc5[nH]c4=O)CC3c3ccccc3)cc2)cc1 (centres undefined)

- inhibition [1]: 31%
SMILES: OC(CN1CCN(CC(O)Cn2c3ccc(Br)cc3c3cc(Br)cc(Br)c32)CC1)Cn1c2ccccc2c2ccccc21 (centres undefined)
